Reference: PubChem BioAssay AID248 (DTP/NCI, 2004)
Several values for one entry are separate records, joined by “and”; a condition that tells them apart may be missing. Equal values may be shown once. Toxic doses and inconclusive results are not listed.

Tested on: L1210 leukemia ip in BDF1 mice, survival T/C
Test: NCI In Vivo Anticancer Drug Screen. Data for tumor model L1210 Leukemia (intraperitoneal) in B6D2F1 (BDF1) mice
Settings: endpoint: mean survival time, higher = longer survival
Procedure, shortened: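 Value reflects the ratio of survival in compound-treated mice to survival in vehicle-treated controls, with both groups carrying the same transplanted tumor.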

[1] = dose: 100.0 mg/kg/injection, schedule: Q04DX003 (ip), vehicle: saline with Tween-80
[2] = dose: 200.0 mg/kg/injection, schedule: Q04DX003 (ip), vehicle: saline with Tween-80
[3] = dose: 100.0 mg/kg/injection, schedule: Q01DX001 (ip), vehicle: Klucel (hydroxypropylcellulose) (HPC)
[4] = dose: 200.0 mg/kg/injection, schedule: Q01DX001 (ip), vehicle: Klucel (hydroxypropylcellulose) (HPC)
[5] = dose: 100.0 mg/kg/injection, schedule: Q04DX002 (ip), vehicle: Klucel (hydroxypropylcellulose) (HPC)
[6] = dose: 200.0 mg/kg/injection, schedule: Q04DX002 (ip), vehicle: Klucel (hydroxypropylcellulose) (HPC)
[7] = dose: 400.0 mg/kg/injection, schedule: Q04DX002 (ip), vehicle: Klucel (hydroxypropylcellulose) (HPC)
[8] = dose: 100.0 mg/kg/injection, schedule: Q04DX003 (ip), vehicle: saline
[9] = dose: 200.0 mg/kg/injection, schedule: Q04DX003 (ip), vehicle: saline
[10] = dose: 400.0 mg/kg/injection, schedule: Q04DX003 (ip), vehicle: saline
[11] = dose: 100.0 mg/kg/injection, schedule: Q01DX009 (ip), vehicle: saline with Tween-80
[12] = dose: 100.0 mg/kg/injection, schedule: Q01DX001 (ip), vehicle: saline with Tween-80
[13] = dose: 200.0 mg/kg/injection, schedule: Q01DX001 (ip), vehicle: saline with Tween-80
[14] = dose: 400.0 mg/kg/injection, schedule: Q01DX001 (ip), vehicle: saline with Tween-80
[15] = dose: 400.0 mg/kg/injection, schedule: Q01DX001 (ip), vehicle: Klucel (hydroxypropylcellulose) (HPC)

With `C=CCC(B1OCCO1)B1OCCO1` the T/C (dose: 100.0 mg/kg/injection, schedule: Q04DX003 (ip), vehicle: saline sonified) was 106 % of control, the T/C (dose: 200.0 mg/kg/injection, schedule: Q04DX003 (ip), vehicle: saline sonified) was 95 % of control and the T/C (dose: 400.0 mg/kg/injection, schedule: Q04DX003 (ip), vehicle: saline sonified) was 110 % of control.
In the case of `S=C1SCN(c2ccccc2)CN1c1ccccc1`, the T/C [1] is reported as 88 % of control and the T/C [2] is reported as 88 % of control.
With `ClCSc1ccccc1` the T/C (dose: 100.0 mg/kg/injection, schedule: Q04DX003 (ip), vehicle: other) was 100 % of control, the T/C (dose: 200.0 mg/kg/injection, schedule: Q04DX003 (ip), vehicle: other) was 104 % of control and the T/C (dose: 400.0 mg/kg/injection, schedule: Q04DX003 (ip), vehicle: other) was 102 % of control.
`COc1ccc(-n2c(=O)c(N=Nc3ccccc3OC)c(O)n(-c3ccccc3C)c2=S)cc1` was tested, and the T/C [3] was 98 % of control and the T/C [4] was 101 % of control.
For `Cc1cc(F)ccc1OCC(=O)Oc1ccc([N+](=O)[O-])cc1`, the T/C [5] was 108 % of control, the T/C [6] was 101 % of control and the T/C [7] was 111 % of control.
`Nc1nc2ncc(CN(N=O)c3ccc(C(=O)NC(CCC(=O)O)C(=O)O)cc3)nc2c(=O)[nH]1` (stereo not drawn) was tested, and the T/C (dose: 0.62 mg/kg/injection, schedule: Q01DX009 (ip), vehicle: water) was 98 % of control, the T/C (dose: 1.25 mg/kg/injection, schedule: Q01DX009 (ip), vehicle: water) was 100 % of control and the T/C (dose: 2.5 mg/kg/injection, schedule: Q01DX009 (ip), vehicle: water) was 98 % of control. For the same molecule, the T/C (dose: 5.0 mg/kg/injection, schedule: Q01DX009 (ip), vehicle: water) was 96 % of control and the T/C (dose: 10.0 mg/kg/injection, schedule: Q01DX009 (ip), vehicle: water) was 98 % of control.
With `CNCC(NC)c1cc(OC)c(OC)c(OC)c1` (stereo not drawn) the T/C [8] was 94 % of control, the T/C [9] was 95 % of control and the T/C [10] was 94 % of control.
For `CC1C(N2CCCCC2)CS1(=O)=O` (stereo not drawn), the T/C (dose: 100.0 mg/kg/injection, schedule: Q04DX002 (ip), vehicle: saline) was 121 % of control.
`O=C(/C=C/c1cccc(Cl)c1)c1ccccc1` was tested, and the T/C (dose: 50.0 mg/kg/injection, schedule: Q04DX002 (ip), vehicle: saline with Tween-80) was 108 % of control, the T/C (dose: 100.0 mg/kg/injection, schedule: Q04DX002 (ip), vehicle: saline with Tween-80) was 115 % of control and the T/C (dose: 200.0 mg/kg/injection, schedule: Q04DX002 (ip), vehicle: saline with Tween-80) was 97 % of control.
With `CCCCCCC(C)(C)NC(N)=O` the T/C (dose: 100.0 mg/kg/injection, schedule: Q01DX001 (ip), vehicle: saline) was 98 % of control, the T/C (dose: 200.0 mg/kg/injection, schedule: Q01DX001 (ip), vehicle: saline) was 101 % of control and the T/C (dose: 400.0 mg/kg/injection, schedule: Q01DX001 (ip), vehicle: saline) was 93 % of control.
In the case of `CCOC(=O)C(=CNc1ccc(Cl)cc1Cl)C(=O)OCC`, the T/C (dose: 100.0 mg/kg/injection, schedule: Q01DX001 (ip), vehicle: other) is reported as 93 % of control, the T/C (dose: 200.0 mg/kg/injection, schedule: Q01DX001 (ip), vehicle: other) is reported as 101 % of control and the T/C (dose: 400.0 mg/kg/injection, schedule: Q01DX001 (ip), vehicle: other) is reported as 101 % of control.
With `FC(F)(F)c1cccc(N2CCNCC2)c1` the T/C (dose: 75.0 mg/kg/injection, schedule: Q01DX001 (ip), vehicle: acid diluted with saline) was 90 % of control.
For `CS(=O)(=O)n1c(C(O)c2ccccc2)nc2ccccc21` (stereo not drawn), the T/C (dose: 100.0 mg/kg/injection, schedule: Q01DX001 (ip), vehicle: carboxymethylcellulose (CMC)) was 100 % of control, the T/C (dose: 200.0 mg/kg/injection, schedule: Q01DX001 (ip), vehicle: carboxymethylcellulose (CMC)) was 94 % of control and the T/C (dose: 400.0 mg/kg/injection, schedule: Q01DX001 (ip), vehicle: carboxymethylcellulose (CMC)) was 89 % of control.
With `O=[N+]([O-])CC(NNC(C[N+](=O)[O-])C(Cl)(Cl)Cl)C(Cl)(Cl)Cl` (stereo not drawn) the T/C [11] was 96 % of control, the T/C [1] was 89 % of control and the T/C (dose: 200.0 mg/kg/injection, schedule: Q01DX009 (ip), vehicle: saline with Tween-80) was 91 % of control. For the same molecule, the T/C [2] was 94 % of control and the T/C (dose: 400.0 mg/kg/injection, schedule: Q04DX003 (ip), vehicle: saline with Tween-80) was 90 % of control.
For `Nc1nc(Nc2ccccc2)nc(C(=O)O)n1`, the T/C (dose: 100.0 mg/kg/injection, schedule: Q01DX009 (ip), vehicle: saline) was 92 % of control, the T/C [8] was 110 % of control and the T/C (dose: 200.0 mg/kg/injection, schedule: Q01DX009 (ip), vehicle: saline) was 106 % of control. For the same molecule, the T/C [9] was 101 % of control, the T/C (dose: 400.0 mg/kg/injection, schedule: Q01DX009 (ip), vehicle: saline) was 115 % of control and the T/C [10] was 106 % of control.
In the case of `N=C(N)c1cccc(NC(=O)c2ccc(C(=O)Nc3cccc(C(=N)N)c3)cc2)c1`, the T/C (dose: 8.0 mg/kg/injection, schedule: Q01DX Z (ip), vehicle: carboxymethylcellulose (CMC)) is reported as 95 % of control, the T/C (dose: 15.0 mg/kg/injection, schedule: Q01DX Z (ip), vehicle: saline) is reported as 95 % of control and the T/C (dose: 16.0 mg/kg/injection, schedule: Q01DX Z (ip), vehicle: carboxymethylcellulose (CMC)) is reported as 96 % of control. For the same molecule, the T/C (dose: 30.0 mg/kg/injection, schedule: Q01DX Z (ip), vehicle: saline) was 120 % of control, the T/C (dose: 31.0 mg/kg/injection, schedule: Q01DX Z (ip), vehicle: carboxymethylcellulose (CMC)) was 106 % of control and the T/C (dose: 60.0 mg/kg/injection, schedule: Q01DX Z (ip), vehicle: saline) was 104 % of control. For the same molecule, the T/C (dose: 62.0 mg/kg/injection, schedule: Q01DX Z (ip), vehicle: carboxymethylcellulose (CMC)) was 113 % of control.
In the case of `Fc1c(F)c(F)c(-c2c(F)c(F)c(-c3c(F)c(F)c(-c4c(F)c(F)c(F)c(F)c4F)c(F)c3F)c(F)c2F)c(F)c1F`, the T/C [12] is reported as 88 % of control, the T/C [13] is reported as 88 % of control and the T/C [14] is reported as 88 % of control.
For `CCCCN(CCCC)CC(C)O` (stereo not drawn), the T/C (dose: 25.0 mg/kg/injection, schedule: Q01DX009 (ip), vehicle: saline with Tween-80) was 101 % of control, the T/C (dose: 25.0 mg/kg/injection, schedule: Q04DX003 (ip), vehicle: saline with Tween-80) was 104 % of control and the T/C (dose: 50.0 mg/kg/injection, schedule: Q01DX009 (ip), vehicle: saline with Tween-80) was 95 % of control. The T/C (dose: 50.0 mg/kg/injection, schedule: Q04DX003 (ip), vehicle: saline with Tween-80) was 96 % of control, the T/C [11] was 104 % of control and the T/C [1] was 98 % of control and 101 % of control.
In the case of `COc1ccccc1OS(=O)(=O)c1ccc(COc2ccc([N+](=O)[O-])cc2Cl)cc1`, the T/C [3] is reported as 93 % of control, the T/C [4] is reported as 98 % of control and the T/C [15] is reported as 96 % of control.
`O=C(NC1CCCCC1)c1ccccc1` was tested, and the T/C (dose: 100.0 mg/kg/injection, schedule: Q04DX003 (ip), vehicle: Klucel (hydroxypropylcellulose) (HPC)) was 100 % of control, the T/C (dose: 200.0 mg/kg/injection, schedule: Q04DX003 (ip), vehicle: Klucel (hydroxypropylcellulose) (HPC)) was 93 % of control and the T/C (dose: 400.0 mg/kg/injection, schedule: Q04DX003 (ip), vehicle: Klucel (hydroxypropylcellulose) (HPC)) was 96 % of control.
With `COC(=O)c1cc(I)cc(I)c1N` the T/C [12] was 98 % of control, the T/C [13] was 98 % of control and the T/C [14] was 100 % of control.
With `C/C(=C/CC1CCC2C3=CCC4CC(O)CCC4(C)C3CCC12C)C(C)C(C)C` (stereo not drawn) the T/C [3] was 102 % of control, the T/C [4] was 98 % of control and the T/C [15] was 88 % of control.
`O=C(O)CCc1c[nH]c2ccc(N(CCCl)CCCl)cc12` was tested, and the T/C (dose: 0.7 mg/kg/injection, schedule: Q01DX Z (ip), vehicle: carboxymethylcellulose (CMC)) was 114 % of control, the T/C (dose: 1.5 mg/kg/injection, schedule: Q01DX Z (ip), vehicle: carboxymethylcellulose (CMC)) was 116 % of control and the T/C (dose: 1.87 mg/kg/injection, schedule: Q01DX001 (ip), vehicle: carboxymethylcellulose (CMC)) was 121 % of control. For the same molecule, the T/C (dose: 3.75 mg/kg/injection, schedule: Q01DX001 (oral), vehicle: carboxymethylcellulose (CMC)) was 119 % of control, the T/C (dose: 7.5 mg/kg/injection, schedule: Q01DX001 (ip), vehicle: carboxymethylcellulose (CMC)) was 173 % of control and the T/C (dose: 15.0 mg/kg/injection, schedule: Q01DX001 (oral), vehicle: carboxymethylcellulose (CMC)) was 103 % of control.
In the case of `COc1ccc(C(=O)Nc2ccc(C)c(Cl)c2)cc1`, the T/C [5] is reported as 115 % of control, the T/C [6] is reported as 115 % of control and the T/C [7] is reported as 112 % of control.
